Literature values in patent US20040247544A1, “Use of dialkyl sulphones in cosmetic nailcare compositions for promoting growth of the nails” (L'OREAL, priority 2002, published 2004).
Like-named read-outs stand apart in the source and are kept apart here.

Assays:
nails [1] = test system: nails
nails [2] = conditions: oral ingestion, aqueous 5% solution, dogs

CS(C)(=O)=O [MSM, methylsulphonylmethane]
strength and brittleness of the nails (nails [1]; aqueous formulation containing 10% MSM and 50% water, applied to the nails with cotton wool, left to act for 15 minutes): strong and less brittle | brittleness of the nails (nails [1]; nail-varnish removers: standard varnish solvent with 5 to 10% of MSM): less brittle | brittleness of the nails (nails [1]; solvent-based (ethyl acetate or amyl acetate) varnish containing 5% by weight of MSM): less brittle | growth of the nails (nails [2]): promotes and stimulates the growth of the nails
